Experimental data published in patent US20210254272A1, “TEXTILES HAVING ANTIMICROBIAL PROPERTIES” (Livinguard AG, priority 2015, published 2021).

Experiment: Leaching test: 100 g fabric soaked in 10 liters stagnant distilled water, 3 days (72 hours)
Format: physicochemical
Conditions: for Leaching of active ingredients / Leaching Test-Leaching of active ingredients: pad process; for Leaching of active ingredients: cured 180° C. 2 min; for Leaching Test-Leaching of active ingredients: 2 min
Procedure: The test procedure for leaching was as follows: 100 g (grams) of fabric as well as control fabrics were soaked in 10 liters of stagnant distilled water in a closed wide mouth jar. After 3 days (72 hours), the water samples were tested for leached substances as per standard analytical methods.
The test procedure for leaching was as follows: 100 g (grams) of fabric as well as control fabrics were soaked in 10 liters of stagnant distilled water in a closed wide mouth jar. After 3 days (72 hours), the water samples were tested for leached substances as per standard analytical methods. A weight of 100 g fabric was chosen because in the preferred embodiment of the water filter as described further below, each filter comprises a strip of fabric with 210 g/m^2, 3 meters long and 0.16 meters wide, which corresponds to 100 g of fabric.

CCCCCCCCCCCCCCCCCC[N+](C)(C)CCC[Si](OC)(OC)OC [Organosilane, dimethyloctadecyl[3-(trimethoxysilyl)propyl] ammonium chloride]
Leaching of active ingredients (in ppm) (exhaust 80° C., 1% o.w.f, 60 min, curing dwell time at 190° C. (title): 3.0 min): 34 ppm | Leaching of active ingredients (in ppm) (exhaust 80° C., 60 min, dosage 1% o.w.f (test up to 5% o.w.f)): 3 ppm | Leaching of active ingredients (in ppm) (exhaust 80° C., 60 min, dosage 2% o.w.f): 22 ppm | Leaching of active ingredients (in ppm) (exhaust 80° C., 60 min, dosage 3% o.w.f): 38 ppm | Leaching of active ingredients (in ppm) (exhaust 80° C., 60 min, dosage 4% o.w.f): 52 ppm | Leaching of active ingredients (in ppm) (exhaust 80° C., 60 min, dosage 5% o.w.f): 72 ppm | Leaching of active ingredients (in ppm) (exhaust 80 ° C., solution dosage 1% o.w.f, process time 10 min): 40 ppm | Leaching of active ingredients (in ppm) (exhaust 80 ° C., solution dosage 1% o.w.f, process time 20 min): 29 ppm | Leaching of active ingredients (in ppm) (exhaust 80 ° C., solution dosage 1% o.w.f, process time 30 min): 25 ppm | Leaching of active ingredients (in ppm) (exhaust 80 ° C., solution dosage 1% o.w.f, process time 40 min): 18 ppm | Leaching of active ingredients (in ppm) (exhaust 80 ° C., solution dosage 1% o.w.f, process time 50 min): 15 ppm | Leaching of active ingredients (in ppm) (exhaust 80 ° C., solution dosage 1% o.w.f, process time 55 min): 6 ppm | Leaching of active ingredients (in ppm) (exhaust 80 ° C., solution dosage 1% o.w.f, process time 60 min): 2 ppm | Leaching of active ingredients (in ppm) (exhaust 80 ° C., solution dosage 1% o.w.f, process time 70 min): 3 ppm | Leaching of active ingredients (in ppm) (exhaust 80 ° C., solution dosage 1% o.w.f, process time 80 min): 4 ppm | Leaching of active ingredients (in ppm) (exhaust 80 ° C., solution dosage 1% o.w.f, process time 90 min): 7 ppm | limit on the quantity of the agent that can be adhered to the textile in a non-leaching or substantially non-leaching manner (from Experimental examples I.1 and I.4): about 0.7 % o.w.f. | Leaching of active ingredients (mixture 1 gm/lit each): 11 ppm | Leaching of active ingredients (mixture 1 gm/lit each, after Washing): 0.2 ppm | Leaching of active ingredients (mixture 5 gm/lit each): 22 ppm | Leaching of active ingredients (mixture 5 gm/lit each, after Washing): 0.5 ppm | Leaching of active ingredients (mixture 10 gm/lit each): 32 ppm | Leaching of active ingredients (mixture 10 gm/lit each, after Washing): 0.7 ppm | Leaching Test-Leaching of active ingredients (single agent 5 gm/lit, curing 120° C.): 8 ppm | Leaching Test-Leaching of active ingredients (single agent 5 gm/lit, curing 140° C.): 6 ppm | Leaching Test-Leaching of active ingredients (single agent 5 gm/lit, curing 150° C.): 5 ppm | Leaching Test-Leaching of active ingredients (single agent 5 gm/lit, curing 160° C.): 3 ppm | Leaching Test-Leaching of active ingredients (single agent 5 gm/lit, curing 180° C.): 1 ppm | Leaching Test-Leaching of active ingredients (single agent 10 gm/lit, curing 120° C.): 17 ppm | Leaching Test-Leaching of active ingredients (single agent 10 gm/lit, curing 140° C.): 13 ppm | Leaching Test-Leaching of active ingredients (single agent 10 gm/lit, curing 150° C.): 10 ppm | Leaching Test-Leaching of active ingredients (single agent 10 gm/lit, curing 160° C.): 9 ppm | Leaching Test-Leaching of active ingredients (single agent 10 gm/lit, curing 180° C.): 1 ppm | Leaching of active ingredient (in ppm) (solution dosage 0.10% o.w.f, exhaust temperature 40° C., process time 60 min): 0 ppm | Leaching of active ingredient (in ppm) (solution dosage 0.10% o.w.f, exhaust temperature 60° C., process time 60 min): 0 ppm | Leaching of active ingredient (in ppm) (solution dosage 0.10% o.w.f, exhaust temperature 65° C., process time 60 min): 0 ppm | Leaching of active ingredient (in ppm) (solution dosage 0.10% o.w.f, exhaust temperature 70° C., process time 60 min): 0 ppm | Leaching of active ingredient (in ppm) (solution dosage 0.10% o.w.f, exhaust temperature 75° C., process time 60 min): 0 ppm | Leaching of active ingredient (in ppm) (solution dosage 0.10% o.w.f, exhaust temperature 80° C., process time 60 min): 0 ppm | Leaching of active ingredient (in ppm) (solution dosage 0.10% o.w.f, exhaust temperature 85° C., process time 60 min): 1 ppm | Leaching of active ingredient (in ppm) (solution dosage 0.10% o.w.f, exhaust temperature 90° C., process time 60 min): 2 ppm | Leaching of active ingredient (in ppm) (solution dosage 0.10% o.w.f, exhaust temperature 95° C., process time 60 min): 3 ppm | Leaching of active ingredient (in ppm) (solution dosage 0.20% o.w.f, exhaust temperature 40° C., process time 60 min): 0 ppm | Leaching of active ingredient (in ppm) (solution dosage 0.20% o.w.f, exhaust temperature 60° C., process time 60 min): 0 ppm | Leaching of active ingredient (in ppm) (solution dosage 0.20% o.w.f, exhaust temperature 65° C., process time 60 min): 0 ppm | Leaching of active ingredient (in ppm) (solution dosage 0.20% o.w.f, exhaust temperature 70° C., process time 60 min): 0 ppm | Leaching of active ingredient (in ppm) (solution dosage 0.20% o.w.f, exhaust temperature 75° C., process time 60 min): 0 ppm | Leaching of active ingredient (in ppm) (solution dosage 0.20% o.w.f, exhaust temperature 80° C., process time 60 min): 0 ppm | Leaching of active ingredient (in ppm) (solution dosage 0.20% o.w.f, exhaust temperature 85° C., process time 60 min): 3 ppm | Leaching of active ingredient (in ppm) (solution dosage 0.20% o.w.f, exhaust temperature 90° C., process time 60 min): 3 ppm | Leaching of active ingredient (in ppm) (solution dosage 0.20% o.w.f, exhaust temperature 95° C., process time 60 min): 4 ppm | Leaching of active ingredient (in ppm) (solution dosage 0.50% o.w.f, exhaust temperature 40° C., process time 60 min): 0 ppm | Leaching of active ingredient (in ppm) (solution dosage 0.50% o.w.f, exhaust temperature 60° C., process time 60 min): 2 ppm | Leaching of active ingredient (in ppm) (solution dosage 0.50% o.w.f, exhaust temperature 65° C., process time 60 min): 1 ppm | Leaching of active ingredient (in ppm) (solution dosage 0.50% o.w.f, exhaust temperature 70° C., process time 60 min): 1 ppm | Leaching of active ingredient (in ppm) (solution dosage 0.50% o.w.f, exhaust temperature 75° C., process time 60 min): 1 ppm | Leaching of active ingredient (in ppm) (solution dosage 0.50% o.w.f, exhaust temperature 80° C., process time 60 min): 1 ppm | Leaching of active ingredient (in ppm) (solution dosage 0.50% o.w.f, exhaust temperature 85° C., process time 60 min): 4 ppm | Leaching of active ingredient (in ppm) (solution dosage 0.50% o.w.f, exhaust temperature 90° C., process time 60 min): 5 ppm | Leaching of active ingredient (in ppm) (solution dosage 0.50% o.w.f, exhaust temperature 95° C., process time 60 min): 6 ppm | Leaching of active ingredient (in ppm) (solution dosage 0.80% o.w.f, exhaust temperature 40° C., process time 60 min): 0 ppm | Leaching of active ingredient (in ppm) (solution dosage 0.80% o.w.f, exhaust temperature 60° C., process time 60 min): 3 ppm | Leaching of active ingredient (in ppm) (solution dosage 0.80% o.w.f, exhaust temperature 65° C., process time 60 min): 3 ppm | Leaching of active ingredient (in ppm) (solution dosage 0.80% o.w.f, exhaust temperature 70° C., process time 60 min): 2 ppm | Leaching of active ingredient (in ppm) (solution dosage 0.80% o.w.f, exhaust temperature 75° C., process time 60 min): 1 ppm | Leaching of active ingredient (in ppm) (solution dosage 0.80% o.w.f, exhaust temperature 80° C., process time 60 min): 1 ppm | Leaching of active ingredient (in ppm) (solution dosage 0.80% o.w.f, exhaust temperature 85° C., process time 60 min): 5 ppm | Leaching of active ingredient (in ppm) (solution dosage 0.80% o.w.f, exhaust temperature 90° C., process time 60 min): 6 ppm | Leaching of active ingredient (in ppm) (solution dosage 0.80% o.w.f, exhaust temperature 95° C., process time 60 min): 8 ppm | Leaching of active ingredient (in ppm) (solution dosage 1.00% o.w.f, exhaust temperature 40° C., process time 60 min): 0 ppm | Leaching of active ingredient (in ppm) (solution dosage 1.00% o.w.f, exhaust temperature 60° C., process time 60 min): 6 ppm | Leaching of active ingredient (in ppm) (solution dosage 1.00% o.w.f, exhaust temperature 65° C., process time 60 min): 6 ppm | Leaching of active ingredient (in ppm) (solution dosage 1.00% o.w.f, exhaust temperature 70° C., process time 60 min): 3 ppm | Leaching of active ingredient (in ppm) (solution dosage 1.00% o.w.f, exhaust temperature 75° C., process time 60 min): 2 ppm | Leaching of active ingredient (in ppm) (solution dosage 1.00% o.w.f, exhaust temperature 80° C., process time 60 min): 1 ppm | Leaching of active ingredient (in ppm) (solution dosage 1.00% o.w.f, exhaust temperature 85° C., process time 60 min): 7 ppm | Leaching of active ingredient (in ppm) (solution dosage 1.00% o.w.f, exhaust temperature 90° C., process time 60 min): 9 ppm | Leaching of active ingredient (in ppm) (solution dosage 1.00% o.w.f, exhaust temperature 95° C., process time 60 min): 10 ppm
